Test results: PubChem BioAssay (NCI)
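1) Cells in 96-well plates. 2) Compound, 48 h, 5 concentrations. 3) Linear interpolation between surrounding doses. 4) Unreached endpoint = highest concentration. TGI marks complete inhibition of growth.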

What was measured:
Assay in all cases: NCI tumour cell line growth inhibition, 48 h
786-0 renal = system: 786-0 renal
A498 renal = system: A498 renal
A549 NSCLC = system: A549 NSCLC
ACHN renal = system: ACHN renal
CAKI-1 renal = system: CAKI-1 renal
CCRF-CEM leukemia = system: CCRF-CEM leukemia
COLO 205 colon = system: COLO 205 colon
DU-145 prostate = system: DU-145 prostate
EKVX NSCLC = system: EKVX NSCLC
HCC-2998 colon = system: HCC-2998 colon
HCT-116 colon = system: HCT-116 colon
HCT-15 colon = system: HCT-15 colon
HL-60(TB) leukemia = system: HL-60(TB) leukemia
HOP-62 NSCLC = system: HOP-62 NSCLC
HOP-92 NSCLC = system: HOP-92 NSCLC
HS 578T breast = system: HS 578T breast
HT29 colon = system: HT29 colon
K-562 leukemia = system: K-562 leukemia
KM12 colon = system: KM12 colon
LOX IMVI melanoma = system: LOX IMVI melanoma
M14 melanoma = system: M14 melanoma
MALME-3M melanoma = system: MALME-3M melanoma
MCF7 breast = system: MCF7 breast
MDA-MB-231 breast = system: MDA-MB-231 breast
MDA-MB-435 = system: MDA-MB-435
MDA-N = system: MDA-N
MOLT-4 leukemia = system: MOLT-4 leukemia
NCI-H226 lung = system: NCI-H226 lung
NCI-H23 lung = system: NCI-H23 lung
NCI-H460 lung = system: NCI-H460 lung
NCI-H522 lung = system: NCI-H522 lung
NCI/ADR-RES ovarian = system: NCI/ADR-RES ovarian
OVCAR-3 ovarian = system: OVCAR-3 ovarian
OVCAR-5 ovarian = system: OVCAR-5 ovarian
OVCAR-8 ovarian = system: OVCAR-8 ovarian
PC-3 prostate = system: PC-3 prostate
RPMI-8226 leukemia = system: RPMI-8226 leukemia
RXF 393 renal = system: RXF 393 renal
SF-268 CNS = system: SF-268 CNS
SF-295 CNS = system: SF-295 CNS
SF-539 CNS = system: SF-539 CNS
SK-MEL-28 melanoma = system: SK-MEL-28 melanoma
SK-MEL-5 melanoma = system: SK-MEL-5 melanoma
SK-OV-3 ovarian = system: SK-OV-3 ovarian
SN12C renal = system: SN12C renal
SNB-19 CNS = system: SNB-19 CNS
SNB-75 CNS = system: SNB-75 CNS
SW-620 colon = system: SW-620 colon
T-47D breast = system: T-47D breast
TK-10 renal = system: TK-10 renal
U251 CNS = system: U251 CNS
UACC-257 melanoma = system: UACC-257 melanoma
UACC-62 melanoma = system: UACC-62 melanoma
UO-31 renal = system: UO-31 renal
BT-549 breast = system: BT-549 breast
IGROV1 ovarian = system: IGROV1 ovarian
OVCAR-4 ovarian = system: OVCAR-4 ovarian
SK-MEL-2 melanoma = system: SK-MEL-2 melanoma
SR leukemia = system: SR leukemia

Cc1ccc2c(/C=C/c3ccc(N(C)C)cc3)ccnc2c1C
TGI (786-0 renal): > 100 µM
TGI (A498 renal): > 100 µM
TGI (A549 NSCLC): > 100 µM
TGI (ACHN renal): 96.7 µM
TGI (CAKI-1 renal): > 100 µM
TGI (CCRF-CEM leukemia): > 100 µM
TGI (COLO 205 colon): 55.6 µM
TGI (DU-145 prostate): > 100 µM
TGI (EKVX NSCLC): > 100 µM
TGI (HCC-2998 colon): 95.6 µM
TGI (HCT-116 colon): > 100 µM
TGI (HCT-15 colon): > 100 µM
TGI (HL-60(TB) leukemia): 80.7 µM
TGI (HOP-62 NSCLC): > 100 µM
TGI (HOP-92 NSCLC): 57.1 µM
TGI (HS 578T breast): > 100 µM
TGI (HT29 colon): 62.3 µM
TGI (K-562 leukemia): > 100 µM
TGI (KM12 colon): 72.3 µM
TGI (LOX IMVI melanoma): > 100 µM
TGI (M14 melanoma): > 100 µM
TGI (MALME-3M melanoma): 40.6 µM
TGI (MCF7 breast): 61.3 µM
TGI (MDA-MB-231 breast): > 100 µM
TGI (MDA-MB-435): > 100 µM
TGI (MDA-N): > 100 µM
TGI (MOLT-4 leukemia): > 100 µM
TGI (NCI-H226 lung): > 100 µM
TGI (NCI-H23 lung): > 100 µM
TGI (NCI-H460 lung): > 100 µM
TGI (NCI-H522 lung): 63.9 µM
TGI (NCI/ADR-RES ovarian): > 100 µM
TGI (OVCAR-3 ovarian): > 100 µM
TGI (OVCAR-5 ovarian): > 100 µM
TGI (OVCAR-8 ovarian): 60.8 µM
TGI (PC-3 prostate): 64.3 µM
TGI (RPMI-8226 leukemia): 31 µM
TGI (RXF 393 renal): 48.4 µM
TGI (SF-268 CNS): > 100 µM
TGI (SF-295 CNS): > 100 µM
TGI (SF-539 CNS): > 100 µM
TGI (SK-MEL-28 melanoma): 52.9 µM
TGI (SK-MEL-5 melanoma): 43.2 µM
TGI (SK-OV-3 ovarian): 67.9 µM
TGI (SN12C renal): > 100 µM
TGI (SNB-19 CNS): > 100 µM
TGI (SNB-75 CNS): 38.5 µM
TGI (SW-620 colon): > 100 µM
TGI (T-47D breast): > 100 µM
TGI (TK-10 renal): 43.6 µM
TGI (U251 CNS): > 100 µM
TGI (UACC-257 melanoma): > 100 µM
TGI (UACC-62 melanoma): 73.1 µM
TGI (UO-31 renal): 54 µM

O=C(Cc1cc(=O)oc2cc(O)ccc12)N/N=C/c1ccc(N(CCCl)CCCl)cc1
TGI (786-0 renal): 37.3 µM
TGI (A498 renal): 41.2 µM
TGI (A549 NSCLC): 32 µM
TGI (ACHN renal): 32.7 µM
TGI (BT-549 breast): 30.8 µM
TGI (CAKI-1 renal): 31.7 µM
TGI (CCRF-CEM leukemia): 74.7 µM
TGI (COLO 205 colon): 72 µM
TGI (DU-145 prostate): 41 µM
TGI (EKVX NSCLC): 44.1 µM
TGI (HCC-2998 colon): > 100 µM
TGI (HCT-116 colon): 30.2 µM
TGI (HCT-15 colon): > 100 µM
TGI (HL-60(TB) leukemia): 37.6 µM
TGI (HOP-62 NSCLC): 41.4 µM
TGI (HOP-92 NSCLC): 43.8 µM
TGI (HS 578T breast): 57.3 µM
TGI (HT29 colon): 45.1 µM
TGI (IGROV1 ovarian): 41.9 µM
TGI (K-562 leukemia): 82.1 µM
TGI (KM12 colon): > 100 µM
TGI (LOX IMVI melanoma): 36.4 µM
TGI (M14 melanoma): 37.8 µM
TGI (MALME-3M melanoma): 40.9 µM
TGI (MCF7 breast): 41.8 µM
TGI (MDA-MB-231 breast): 33.3 µM
TGI (MDA-MB-435): 47.7 µM
TGI (MDA-N): 63 µM
TGI (MOLT-4 leukemia): 94.6 µM
TGI (NCI-H226 lung): 35 µM
TGI (NCI-H23 lung): 69.4 µM
TGI (NCI-H460 lung): 29.4 µM
TGI (NCI-H522 lung): 45 µM
TGI (NCI/ADR-RES ovarian): > 100 µM
TGI (OVCAR-3 ovarian): 33.1 µM
TGI (OVCAR-4 ovarian): 87.3 µM
TGI (OVCAR-5 ovarian): 55 µM
TGI (OVCAR-8 ovarian): 29.4 µM
TGI (PC-3 prostate): 35.2 µM
TGI (RPMI-8226 leukemia): 43.6 µM
TGI (RXF 393 renal): 31 µM
TGI (SF-268 CNS): 30.4 µM
TGI (SF-295 CNS): 34.3 µM
TGI (SF-539 CNS): 35.6 µM
TGI (SK-MEL-2 melanoma): > 100 µM
TGI (SK-MEL-28 melanoma): 28.6 µM
TGI (SK-MEL-5 melanoma): 27.7 µM
TGI (SN12C renal): 41.3 µM
TGI (SNB-19 CNS): 42.4 µM
TGI (SNB-75 CNS): 38.5 µM
TGI (SR leukemia): 40.5 µM
TGI (SW-620 colon): > 100 µM
TGI (U251 CNS): 34.1 µM
TGI (UACC-257 melanoma): 63.1 µM
TGI (UO-31 renal): 46.2 µM

COc1cc(C2c3cc4c(cc3[C@@H](Nc3ccc(F)cc3)C3CO[C@@H](O)[C@H]23)OCO4)cc(OC)c1O (stereo partly drawn)
TGI (786-0 renal): > 25 µM
TGI (A549 NSCLC): > 25 µM
TGI (ACHN renal): 6.88 µM
TGI (CCRF-CEM leukemia): 7.72 µM
TGI (COLO 205 colon): > 25 µM
TGI (EKVX NSCLC): > 25 µM
TGI (HCC-2998 colon): > 25 µM
TGI (HCT-116 colon): > 25 µM
TGI (HCT-15 colon): > 25 µM
TGI (HL-60(TB) leukemia): 5.23 µM
TGI (HOP-62 NSCLC): > 25 µM
TGI (HS 578T breast): 14.7 µM
TGI (IGROV1 ovarian): > 25 µM
TGI (K-562 leukemia): > 25 µM
TGI (KM12 colon): > 25 µM
TGI (M14 melanoma): > 25 µM
TGI (MCF7 breast): > 25 µM
TGI (MDA-MB-231 breast): > 25 µM
TGI (MDA-MB-435): > 25 µM
TGI (MDA-N): > 25 µM
TGI (MOLT-4 leukemia): 4.43 µM
TGI (NCI-H460 lung): > 25 µM
TGI (NCI-H522 lung): 15 µM
TGI (NCI/ADR-RES ovarian): > 25 µM
TGI (OVCAR-4 ovarian): > 25 µM
TGI (OVCAR-5 ovarian): 12.8 µM
TGI (OVCAR-8 ovarian): > 25 µM
TGI (PC-3 prostate): > 25 µM
TGI (RPMI-8226 leukemia): > 25 µM
TGI (SF-268 CNS): > 25 µM
TGI (SF-295 CNS): 10.3 µM
TGI (SF-539 CNS): 12.6 µM
TGI (SK-MEL-28 melanoma): > 25 µM
TGI (SK-MEL-5 melanoma): > 25 µM
TGI (SK-OV-3 ovarian): > 25 µM
TGI (SN12C renal): > 25 µM
TGI (SNB-19 CNS): > 25 µM
TGI (SNB-75 CNS): > 25 µM
TGI (SW-620 colon): > 25 µM
TGI (T-47D breast): > 25 µM
TGI (TK-10 renal): > 25 µM
TGI (U251 CNS): 8.47 µM
TGI (UACC-257 melanoma): > 25 µM
TGI (UO-31 renal): 8.28 µM
